Measured values reported in PubChem BioAssay AID1347054 (Pharmacoinformatics Research Group Wien, 2019).
Active and inactive are the calls of the source.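 How the source made its calls: active means clear block of the BCRP drug efflux pump at 10 µM versus solvent-only wells, p under 0.05; inactive means the rest.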

Target: Broad substrate specificity ATP-binding cassette transporter ABCG2 (Homo sapiens) (UniProt Q9UNQ0)
Assay: BCRP efflux transporter inhibitors, PLB985 cells, flow cytometry (AID 1347054)
Details: mitoxantrone accumulation, at 10 µM, hits give high values

Chain of Broad substrate specificity ATP-binding cassette transporter ABCG2 (Homo sapiens) (Q9UNQ0 whole entry, looked up): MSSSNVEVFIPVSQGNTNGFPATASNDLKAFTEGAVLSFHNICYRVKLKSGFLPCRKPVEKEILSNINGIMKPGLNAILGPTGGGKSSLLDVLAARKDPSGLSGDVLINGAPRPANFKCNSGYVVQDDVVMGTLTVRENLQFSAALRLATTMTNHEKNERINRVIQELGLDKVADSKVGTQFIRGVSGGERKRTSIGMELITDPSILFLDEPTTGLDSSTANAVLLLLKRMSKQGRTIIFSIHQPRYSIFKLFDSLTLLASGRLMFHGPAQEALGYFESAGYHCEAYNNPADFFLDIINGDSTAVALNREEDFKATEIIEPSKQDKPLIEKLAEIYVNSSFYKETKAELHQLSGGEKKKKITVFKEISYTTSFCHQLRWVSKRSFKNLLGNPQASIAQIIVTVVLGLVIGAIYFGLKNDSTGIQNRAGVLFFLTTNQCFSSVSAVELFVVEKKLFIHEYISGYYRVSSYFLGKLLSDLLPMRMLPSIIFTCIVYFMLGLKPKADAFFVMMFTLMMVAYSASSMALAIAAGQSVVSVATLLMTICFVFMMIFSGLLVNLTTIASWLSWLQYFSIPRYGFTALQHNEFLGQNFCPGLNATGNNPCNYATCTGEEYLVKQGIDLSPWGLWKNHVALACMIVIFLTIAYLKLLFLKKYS

Row | Compound | inhibition
1 | C[C@]12CCC(=O)C=C1[C@@H]1C[C@@H]1[C@H]1[C@@H]3[C@@H]4C[C@@H]4[C@@]4(CCC(=O)O4)[C@@]3(C)CC[C@@H]12 | 14.4% (inactive)
2 | O=C(Nc1c(Cl)cncc1Cl)c1ccc(OC(F)F)c(OCC2CC2)c1 | 61.7%
3 | COc1cc(N)c(Cl)cc1C(=O)N[C@@H]1CCN(CCCOc2ccc(F)cc2)C[C@@H]1OC | 83.8%
4 | COc1cc(NS(C)(=O)=O)ccc1Nc1c2ccccc2nc2ccccc12 | 13.7% (inactive)
5 | CS(C)=O | 0% (inactive)
6 | CN(Cc1ccc(C(C)(C)C)cc1)Cc1cccc2ccccc12 | 10.8% (inactive)
7 | CCCCN(CCCC)CCC(O)c1cc2c(Cl)cc(Cl)cc2c2cc(C(F)(F)F)ccc12 (stereo unspecified) | -9.66% (inactive)
8 | COc1ccc2c(c1)C13CCCC[C@@H]1C(C2)N(C)CC3 (stereo partly specified) | -6.11% (inactive)
9 | CN(C/C=C/C#CC(C)(C)C)Cc1cccc2ccccc12 | 9.86% (inactive)
10 | C=C1CC[C@H](O)C/C1=C/C=C1\CCC[C@]2(C)[C@@H]([C@H](C)CCCC(C)C)CC[C@@H]12 | 1.28% (inactive)
11 | COc1ccc(C(=O)Nc2ccccc2CCC2CCCCN2C)cc1 (stereo unspecified) | 13.3% (inactive)
